Common to all, as to format: cell-based
The target in assay [1] is T1, wild-type Androgen Receptor (AR-wt) (Homo sapiens, UniProt P10275).
T1 construct: expressed in transfected cells; host or cells: LNCaP (LNCaP AR (cs))
T1 sequence (P10275 1-920): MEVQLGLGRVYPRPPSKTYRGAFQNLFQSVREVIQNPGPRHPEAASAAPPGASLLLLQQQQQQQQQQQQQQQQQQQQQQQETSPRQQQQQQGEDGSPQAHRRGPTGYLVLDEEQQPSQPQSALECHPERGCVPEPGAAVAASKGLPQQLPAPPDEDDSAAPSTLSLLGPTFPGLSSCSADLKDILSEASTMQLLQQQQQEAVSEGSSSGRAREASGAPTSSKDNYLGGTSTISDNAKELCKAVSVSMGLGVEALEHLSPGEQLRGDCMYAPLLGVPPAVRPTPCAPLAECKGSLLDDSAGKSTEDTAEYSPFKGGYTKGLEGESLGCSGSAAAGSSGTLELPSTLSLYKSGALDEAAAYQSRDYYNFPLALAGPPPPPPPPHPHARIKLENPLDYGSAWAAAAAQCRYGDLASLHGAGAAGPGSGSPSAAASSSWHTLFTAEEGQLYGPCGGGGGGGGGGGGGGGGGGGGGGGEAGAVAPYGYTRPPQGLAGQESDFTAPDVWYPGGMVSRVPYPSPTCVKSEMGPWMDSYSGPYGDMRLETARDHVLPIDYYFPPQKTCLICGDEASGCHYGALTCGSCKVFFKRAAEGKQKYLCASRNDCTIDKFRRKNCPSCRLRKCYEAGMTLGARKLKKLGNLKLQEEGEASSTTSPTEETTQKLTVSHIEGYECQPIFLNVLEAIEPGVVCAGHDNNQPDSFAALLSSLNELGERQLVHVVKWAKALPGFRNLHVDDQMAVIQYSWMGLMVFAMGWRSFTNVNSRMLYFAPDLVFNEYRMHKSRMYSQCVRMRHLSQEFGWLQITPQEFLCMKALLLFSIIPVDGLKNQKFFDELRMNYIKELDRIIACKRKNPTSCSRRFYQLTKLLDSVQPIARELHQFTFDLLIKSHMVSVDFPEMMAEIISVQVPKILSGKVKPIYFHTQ
Kind of assay: LNCaP-AR-wt ANT reporter assay (ARE firefly luciferase, antagonist mode). To be noted: for IC50: antagonist mode, 400 pM R-1881 challenge, −Log10(IC50 [Molar]), read-out: LNCaP-AR-wt ANT pIC50 (converted); for Emax: read-out: LNCaP-AR-wt ANT MAX % Inh. An outline of the steps: (§1)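 Puromycin-selected pooled LNCaP populations expressing AR-wt or AR-F876L are seeded in CSS medium and treated with compound for 20-24 h at 37 °C. For antagonist testing, agonist is added at 400 pM (WT) or 600 pM (F876L). Potency values derive from least-squares fitting of luminescence RLU.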
(In general: A reporter such as luciferase makes a cellular process visible.)

In assay [2] the target is T1, wild-type Androgen Receptor (AR-wt). Kind of assay: LNCaP-AR-wt AG reporter assay (ARE firefly luciferase, agonist mode). To be noted: for Emax: read-out: LNCaP-AR-wt AG MAX % Stim. An outline of the steps:
(§2)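 LNCaP stable pooled lines expressing ARE-firefly luciferase, in charcoal-stripped serum medium, were exposed to compounds; antagonist mode used agonist at 400 pM (WT) or 600 pM (F876L).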

In assay [3] the target is T2, F876L mutant Androgen Receptor (AR-F876L) (Homo sapiens, UniProt P10275, F877L).
T2 construct: expressed in transfected cells; host or cells: LNCaP (LNCaP F876L)
T2 sequence (P10275 1-920 F877L): T1 sequence (P10275 1-920) with F877L
Kind of assay: LNCaP-AR-F876L ANT reporter assay (ARE firefly luciferase, antagonist mode). Conditions: for Emax: read-out: LNCaP-AR-F876L ANT MAX % Inh; for IC50: read-out: LNCaP-AR-F876L ANT pIC50 (converted). A digest of the protocol:
as §1

Assay [4] addresses T2, F876L mutant Androgen Receptor (AR-F876L). Kind of assay: LNCaP-AR-F876L AG reporter assay (ARE firefly luciferase, agonist mode). To be noted: for Emax: read-out: LNCaP-AR-F876L AG MAX % Stim. A digest of the protocol: as §2
Where [5] appears, read: maximum % inhibition of R1881 control response over tested concentration range.
[6] abbreviates: agonist mode, −Log10(EC50 [Molar]), read-out: LNCaP-AR-wt AG pEC50 (converted).
Where [7] appears, read: agonist mode, −Log10(EC50 [Molar]), read-out: LNCaP-AR-F876L AG pEC50 (converted).
Where [8] appears, read: maximum % stimulation (agonist response) over tested concentration range.

Structures are written as SMILES. Changes are numbered by the printed parent chain. Read-outs that look alike come from different tables or passages of the source.

Turning to `N#Cc1ncc(N2C(=O)C3(CCC3)N(c3ccc(C(=O)NCc4ccccc4Cl)c(F)c3)C2=S)cc1C(F)(F)F` [Cpd 31, N-[(2-chlorophenyl)methyl]-4-[6-[6-cyano-5-(trifluoromethyl)-3-pyridyl]-5-oxo-7-thioxo-6,8-diazaspiro[3.4]octan-8-yl]-2-fluoro-benzamide], the IC50 in assay [1] and in assay [3] was 2240 nM each time. Further, the Emax in assay [1] worked out at 98.6%; in assay [2], 0.2%; in assay [3] it was 91%; in assay [4] it was 0.3%. For the same compound, the EC50 in assay [2] and in assay [4] was over 15100 nM throughout.

`N#Cc1ncc(N2C(=O)C3(CCC3)N(c3ccc4ccncc4c3)C2=S)cc1C(F)(F)F` [Cpd 7, 5-[8-(7-isoquinolyl)-5-oxo-7-thioxo-6,8-diazaspiro[3.4]octan-6-yl]-3-(trifluoromethyl)pyridine-2-carbonitrile]: the IC50 in assay [1] was 417 nM; in assay [3], 234 nM. Besides, the Emax is 101% in assay [1], -0.2% in assay [2], 100% in assay [3] and 0% in assay [4]. For the same compound, the EC50 in assay [2] and in assay [4] was over 15100 nM throughout.

Regarding `N#Cc1ncc(N2C(=O)C3(CCC3)N(c3cccc(OC(F)(F)F)c3)C2=S)cc1C(F)(F)F` [Cpd 97, 5-[5-oxo-7-thioxo-8-[3-(trifluoromethoxy)phenyl]-6,8-diazaspiro[3.4]octan-6-yl]-3-(trifluoromethyl)pyridine-2-carbonitrile], the IC50 in assay [1] is 912 nM; in assay [3] it was 676 nM. Besides, the Emax in assay [1] (setting [5]) worked out at 100%; in assay [2], 0.7%; in assay [3] (setting [5]), 99.6%; in assay [4] it was 1.6%. Besides, the EC50 in assay [2] (setting [6]) and in assay [4] (setting [7]) was over 15100 nM in each case.

Turning to `Cc1cc(N2C(=O)C3(CCC3)N(c3ccc(-c4cncnc4)cc3)C2=S)cnc1C#N` [Cpd 93, 3-methyl-5-[5-oxo-8-(4-pyrimidin-5-ylphenyl)-7-thioxo-6,8-diazaspiro[3.4]octan-6-yl]pyridine-2-carbonitrile], the IC50 in assay [1] is 407 nM; in assay [3], 234 nM. Also, the Emax was determined as 100% in assay [1], 0.9% in assay [2], 100% in assay [3] and 0.8% in assay [4]. In addition, the EC50 in assay [2] and in assay [4] was over 15100 nM each time.

Take `COCCNC(=O)c1ccc(N2C(=S)N(c3cnc(C#N)c(C(F)(F)F)c3)C(=O)C23CCC3)cc1F` [Cpd 46, 4-[6-[6-cyano-5-(trifluoromethyl)-3-pyridyl]-5-oxo-7-thioxo-6,8-diazaspiro[3.4]octan-8-yl]-2-fluoro-N-(2-methoxyethyl)benzamide]: the IC50 was 891 nM in assay [1] and 631 nM in assay [3]. Also, the Emax is 99.9% in assay [1], -0.1% in assay [2], 98.3% in assay [3] and 0.2% in assay [4]. The EC50 in assay [2] and in assay [4] was over 15100 nM each time.

`N#Cc1ncc(N2C(=O)C3(CCC3)N(c3ccc(OCCc4ncccn4)c(F)c3)C2=S)cc1C(F)(F)F` [Cpd 56, 5-[8-[3-fluoro-4-(2-pyrimidin-2-ylethoxy)phenyl]-5-oxo-7-thioxo-6,8-diazaspiro[3.4]octan-6-yl]-3-(trifluoromethyl)pyridine-2-carbonitrile]: the values for the IC50 in assay [1] and in assay [3] were 851 nM and 832 nM, respectively. For the same compound, the Emax in assay [1] (setting [5]) is 99.7%; in assay [2] (setting [8]), 0.5%; in assay [3] (setting [5]) it was 97.8%; in assay [4] (setting [8]) it was 0.4%. Besides, the EC50 in assay [2] (setting [6]) and in assay [4] (setting [7]) was over 15100 nM throughout.

`N#Cc1ncc(N2C(=O)C3(CCC3)N(c3ccc(C(=O)NCCN4CCOCC4)c(F)c3)C2=S)cc1C(F)(F)F` [Cpd 22, 4-[6-[6-cyano-5-(trifluoromethyl)-3-pyridyl]-5-oxo-7-thioxo-6,8-diazaspiro[3.4]octan-8-yl]-2-fluoro-N-(2-morpholinoethyl)benzamide]: the figures for the IC50 in assay [1] and in assay [3] were 2450 nM and 724 nM, respectively. Moreover, the Emax in assay [1] (setting [5]) came to 99.5%; in assay [2] (setting [8]) it was 0%; in assay [3] (setting [5]), 99.7%; in assay [4] (setting [8]), 0.1%. Besides, the EC50 in assay [2] (setting [6]) and in assay [4] (setting [7]) was over 15100 nM each time.

For the compound `Cc1cc(N2C(=O)C3(CCC3)N(c3ccc(C(=O)Nc4ccccc4F)c(F)c3)C2=S)cnc1C#N` [Cpd 11, 4-[6-(6-cyano-5-methyl-3-pyridyl)-5-oxo-7-thioxo-6,8-diazaspiro[3.4]octan-8-yl]-2-fluoro-N-(2-fluorophenyl)benzamide], the IC50 was 676 nM in assay [1] and 295 nM in assay [3]. The Emax in assay [1] (setting [5]) is 101%; in assay [2] (setting [8]) it was -0.1%; in assay [3] (setting [5]) it was 99.9%; in assay [4] (setting [8]) it was -0.1%. Further, the EC50 in assay [2] (setting [6]) and in assay [4] (setting [7]) was over 15100 nM in each case.

Take `CN1CCN(CCNC(=O)c2ccc(N3C(=S)N(c4cnc(C#N)c(C(F)(F)F)c4)C(=O)C34CCC4)cc2F)CC1` [Cpd 121, 4-[6-[6-cyano-5-(trifluoromethyl)-3-pyridyl]-5-oxo-7-thioxo-6,8-diazaspiro[3.4]octan-8-yl]-2-fluoro-N-[2-(4-methylpiperazin-1-yl)ethyl]benzamide]: the IC50 in assay [1] is 2750 nM; in assay [3], 575 nM. The Emax in assay [1] (setting [5]) amounted to 93.6%; in assay [2] (setting [8]), 1.2%; in assay [3] (setting [5]), 98.7%; in assay [4] (setting [8]), 3%. Further, the EC50 in assay [2] (setting [6]) and in assay [4] (setting [7]) was over 15100 nM in each case.

Source of the values: patent US20180008587A1, “THIOHYDANTOIN ANDROGEN RECEPTOR ANTAGONISTS FOR THE TREATMENT OF CANCER” (Jaressen Pharmaceutica NV, priority 2016, published 2018).
